Read-outs that look alike come from different tables or passages of the source.
Assays:
SK-MES-1 [1] = test: ADCC report assay, SK-MES-1; assay type: cell-based; settings: EGFR Amplification, KRAS WT, effector/target 10:1, 20 h
Protocol: (§1) In the ADCC report assay, ADCC effector cells ((Promega, G7102)) are engineered cells in which FcRIIIa (V158) receptor is overexpressed into Jurkat T cells, which rapidly respond to ADCC through the NFAT-RE driving element within the Jurkat T cells.
(§2) • (1) Tumor cells (cell lines listed in Table 3) and ADCC effector cells (Promega, G7102) were mixed well (1.5E4 cells: 1.5E5 cells/well/100 μL (1.5E5: 1.5E6 cells/mL)) according to an effector/target ratio (10:1), and added to a 96-well white plate (NUNC, 136101). • (2) The antibody molecules prepared in advance by dilution were added to the corresponding cell well plates, mixed well, and cultured at 37° C. with 5% CO2 for 20 h. • (3) The Bio-glo reagent (Promega, G755B) prepared in advance was added to the cell well plate, the plate was left to stand at room temperature for 10-15 min in the dark, and then the cells were detected by a multimode microplate reader (Molecular Devices, Spectra MAXi3).

H1975 = assay type: cell-based, human; settings: EGFR L858R T790M, KRAS WT, huPBMC:target 50:1, 8 h, LDH
Protocol: (§3) • (1) A CTS medium (Gibco, A3021002) was preheated at 37° C. huPBMC (Miaotong Biotechnology, PB 100C-W) was quickly thawed in a water bath, and then the cells were added slowly to 8 mL of CTS medium (containing 1% DNase). • (2) The mixture was centrifuged at 300 g for 8 min. The supernatant was removed, and the cells were resuspended in 30 mL of CTS (containing 10 μL of DNase), transferred to a T75 flask, and incubated in an incubator at 37° C. overnight. • (3) The suspension cells cultured overnight were taken and centrifuged at 300 g for 8 min. The supernatant was removed, and the cell density was adjusted with CTS. According to an effector/target ratio of effector cells (huPBMCs) to target cells (tumor cells in Table 5) of 50:1, huPBMCs and the tumor cells prepared in advance (Target: huPBMC=1.5E4/7.5E5 cells/well/100 μL) were plated in a 96-well low-adsorption plate (Corning. CLS7007-24EA). • (4) The diluted antibody drug was added to the corresponding cell well plate and cultured at 37° C. with 5% CO2 for 8 h. • (5) The mixture was centrifuged at 300 g for 5 min. 50 μL of the supernatant was transferred to a 96-well transparent flat-bottom plate ((NUNC, 136101), 50 μL of the LDH reagent (Promega, G1780) prepared in advance was added to the corresponding well plate, and the plate was left to stand at room temperature for 15-30 min in the dark. • (6) 50 μL LDH stop solution (Promega, G1780) was taken and detected by a multimode microplate reader (Molecular Devices, Spectra MAXi3) at 490 nm for readings.

H1650 = assay type: cell-based, human; settings: EGFR Amplification Del19, KRAS WT, huPBMC:target 50:1, 8 h, LDH
Protocol: as §3

H292 [2] = assay type: cell-based, human; settings: EGFR WT, KRAS WT, huPBMC:target 50:1, 8 h, LDH
Protocol: as §3

SK-MES-1 [3] = assay type: cell-based, human; settings: EGFR Amplification, KRAS WT, huPBMC:target 50:1, 8 h, LDH
Protocol: as §3

H322 = assay type: cell-based, human; settings: EGFR WT, KRAS WT, huPBMC:target 50:1, 8 h, LDH
Protocol: as §3

H358 = assay type: cell-based, human; settings: EGFR WT, KRAS G12C, huPBMC:target 50:1, 8 h, LDH
Protocol: as §3

TE-1 = test: Proliferation inhibition experiment, TE-1 (HNSCC); assay type: cell-based; settings: EGFR WT, KRAS WT
Protocol: • (1) NSCLC: plated at 1500-2500 cells/100 μL in a 96-well low-adsorption plate (Corning, CLS7007-24EA) for 3D cell culture, in which the following cell lines and specific amounts were used: • NSCLC: 2000 cells/100 μL/well • NCI-H292: Cell Bank of the Chinese Academy of Sciences, SCSP-582 • NCI-H322: Cobioer, CBP60134 • NCI-H1650: ATCC, CRL-5883 • NCI-H1975: ATCC, CRL-5908 • SK-MES-1: CoBioer, CBP60152 • NCI-H1703: ATCC, HTB-43 • PC9+hB7H3: constructed as described above • CRC and HNSCC: plated at 1500-2000 cells/100 μL in a 96-well white-bottom plate (NUNC, 136101) for 2D cell culture, in which the following cell lines and specific amounts were used: • CRC: 1500 cells/100 μL/well • CCK-81: CoBioer, CBP60581 • HT-55: CoBioer, CBP60012 • H508: CoBioer, CBP60795 • LS180: CoBioer, CBP60034 • HNSCC: 1500 cells/100 μL/well • TE-1: CoBioer, CBP60655 • Colo680: CoBioer, CBP60452. (2) The antibody molecules prepared in advance by dilution were added to the corresponding cell well plate, mixed well, and cultured in an incubator at 37° C. with 5% CO2 for 5 days. • (3) After 5 days of continuous culture for proliferation inhibition assay, the Cell-Titer reagent (Promega, G7572) prepared in advance was added to cell wells, the plate was left to stand at room temperature for 15-25 min in the dark, and then CRC and HNSCC cells were directly detected by a multimode microplate reader (Molecular Devices, Spectra MAXi3). • (4) NSCLC: Cell-Titer and the cell mixture were transferred to a 96-well white-bottom plate (NUNC, 136101) and detected by a multimode microplate reader (Molecular Devices, Spectra MAXi3).

H292 [4] = test: ADCC report assay, H292; assay type: cell-based; settings: EGFR WT, KRAS WT, effector/target 10:1, 20 h
Protocol: as §1, §2

Substance | EC50 (SK-MES-1 [1]) [nM] | EC50 (H1975) [nM] | EC50 (H1650) [nM] | EC50 (H292 [2]) [nM] | EC50 (SK-MES-1 [3]) [nM] | EC50 (H322) [nM] | EC50 (H358) [nM] | Max inhibition (%) Mean ± SD (TE-1) [%] | IC50 (TE-1; 2D culture, 5 days) [nM] | EC50 (H292 [4]) [nM]
amivantamab [JNJ372] | 0.144 | 0.117 | 0.427 | 0.004 | 0.072 | 0.032 | 0.03 | 32.2 ± 4.7 | 570 | 0.083
zalutumumab [Zalu mAb] | 0.011 | 0.118 | 0.571 | 0.001 | 0.014 | 0.014 | 0.007 | 42.2 ± 1.1 | – | 0.009

Reference: patent US20250381269A1, “BISPECIFIC ANTIBODY BINDING EGFR AND B7-H3” (FORTVITA BIOLOGICS (SINGAPORE) PTE. LTD., priority 2022, published 2025)
